Measured values published in patent US11111245B2, “Derivatives of N-cycloalkyl/heterocycloalkyl-4-(imidazo[1,2-a]pyridine)pyrimidin-2-amine as therapeutic agents” (Aucentra Therapeutics Pty Ltd, priority 2017, dated 2021).

Tests used:
CDK9/T1 = CDK9/T1 (Homo sapiens, UniProt P50750); experiment: ADP Glo Kinase assay CDK9/T1; format: biochemical; settings: CDK9T1; read-out: CDK inhibition, Ki (μM) CDK9T1
Summary of the method: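 Luminescent ADP detection measured activity after a 40 min, 37° C ATP-initiated reaction, using RB-CTF for CDK4/D1 and CDK6/D3 and RBER-IRStide for CDK9/T1. Controls lacked or contained kinase. Values: IC50 by four-parameter nonlinear regression, Ki from ATP Km.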

leukemia cell lines = experiment: Resazurin cell viability assay on leukemia cell lines (72 h growth inhibition, GI50); format: cell-based; settings: Homo sapiens, MV4-11 cells
Summary of the method: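 Cells were exposed to compound, then viability was read by MTT (solid tumour lines) or resazurin reduction (leukaemia lines). Non-linear regression gave the concentration inhibiting 50% of cell growth.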

CDK6/D3 = CDK6/D3 (Homo sapiens, UniProt Q00534); experiment: ADP Glo Kinase assay CDK6/D3; format: biochemical; settings: CDK6D3; for remaining activity at 10 µM: compound at 10 μM, read-out: residual activity (%) at 10 μM CDK6D3; for Ki: read-out: CDK inhibition, Ki (μM) CDK6D3
Sequence of CDK6/D3 (Q00534 whole entry): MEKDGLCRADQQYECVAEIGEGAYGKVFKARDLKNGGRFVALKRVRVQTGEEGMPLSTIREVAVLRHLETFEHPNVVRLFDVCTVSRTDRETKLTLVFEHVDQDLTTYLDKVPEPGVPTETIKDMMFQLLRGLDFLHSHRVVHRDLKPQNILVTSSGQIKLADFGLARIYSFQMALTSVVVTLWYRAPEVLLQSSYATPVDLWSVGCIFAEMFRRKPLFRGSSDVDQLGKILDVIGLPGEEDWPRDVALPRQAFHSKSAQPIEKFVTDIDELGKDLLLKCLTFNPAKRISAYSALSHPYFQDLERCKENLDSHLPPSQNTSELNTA
Sequence of CDK6/D3 (P30281 whole entry partner): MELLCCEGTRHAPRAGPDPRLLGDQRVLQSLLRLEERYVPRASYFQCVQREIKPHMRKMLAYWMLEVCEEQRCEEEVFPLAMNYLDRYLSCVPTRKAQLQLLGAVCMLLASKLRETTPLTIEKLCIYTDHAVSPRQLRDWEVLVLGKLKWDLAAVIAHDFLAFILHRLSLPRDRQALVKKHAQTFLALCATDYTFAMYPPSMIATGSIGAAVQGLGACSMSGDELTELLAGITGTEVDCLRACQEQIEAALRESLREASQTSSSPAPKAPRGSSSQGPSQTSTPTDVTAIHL
Summary of the method: (§1)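 ADP Glo luminescence, in-house: CDK4/D1, CDK6/D3 on RB-CTF substrate (Tris pH 7.5, MgCl2, DTT, BSA); CDK9/T1 on RBER-IRStide. Reaction 40 min, 37° C after ATP addition. 10-point 1:3 series, 10 μM to 0.5 nM. IC50 by 4-parameter logistic; Ki derived using ATP Km.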

CDKs and other kinases [1] = target: T1, CDKs and other kinases (Homo sapiens, UniProt P24941); experiment: Radiometric kinase assay (Eurofins Pharma Discovery or Reaction Biology Corporation Kinase Profiler); format: biochemical; settings: CDK2A; for Ki: read-out: CDK inhibition, Ki (μM) CDK2A; for remaining activity at 10 µM: compound at 10 μM, read-out: residual activity (%) at 10 μM CDK2A
T1 construct: other: CDK2A; residual activity (%) at 10 μM CDK2A; compound at 10 μM
Summary of the method: (§2)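 Other CDKs and further kinases were profiled externally by radiometric assay. In-house ADP Glo assays covered CDK4/D1 and CDK6/D3 (RB-CTF substrate, pH 7.5 Tris buffer with MgCl2, DTT, BSA) and CDK9/T1 (RBER-IRStide substrate), 40 min at 37° C.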

CDKs and other kinases [2] = target: T2, CDKs and other kinases (Homo sapiens, UniProt P06493); experiment: as above; format: biochemical; settings: CDK1B; for Ki: read-out: CDK inhibition, Ki (μM) CDK1B; for remaining activity at 10 µM: compound at 10 μM, read-out: residual activity (%) at 10 μM CDK1B
T2 construct: other: CDK1B; residual activity (%) at 10 μM CDK1B; compound at 10 μM
T2 sequence (P06493 whole entry): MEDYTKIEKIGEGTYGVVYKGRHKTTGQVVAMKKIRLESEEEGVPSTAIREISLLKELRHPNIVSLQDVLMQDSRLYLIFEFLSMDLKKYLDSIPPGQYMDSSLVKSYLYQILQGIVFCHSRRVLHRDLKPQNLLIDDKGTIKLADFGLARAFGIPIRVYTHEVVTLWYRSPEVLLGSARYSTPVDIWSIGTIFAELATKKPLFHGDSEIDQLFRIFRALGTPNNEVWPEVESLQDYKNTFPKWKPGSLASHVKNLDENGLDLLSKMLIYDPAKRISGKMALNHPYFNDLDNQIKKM
Summary of the method: as §2

CDKs and other kinases [3] = target: T3, CDKs and other kinases (Homo sapiens, UniProt P50613); experiment: as above; format: biochemical; settings: CDK7H; for Ki: read-out: CDK inhibition, Ki (μM) CDK7H; for remaining activity at 10 µM: compound at 10 μM, read-out: residual activity (%) at 10 μM CDK7H
T3 construct: other: CDK7H; residual activity (%) at 10 μM CDK7H; compound at 10 μM
T3 sequence (P50613 whole entry): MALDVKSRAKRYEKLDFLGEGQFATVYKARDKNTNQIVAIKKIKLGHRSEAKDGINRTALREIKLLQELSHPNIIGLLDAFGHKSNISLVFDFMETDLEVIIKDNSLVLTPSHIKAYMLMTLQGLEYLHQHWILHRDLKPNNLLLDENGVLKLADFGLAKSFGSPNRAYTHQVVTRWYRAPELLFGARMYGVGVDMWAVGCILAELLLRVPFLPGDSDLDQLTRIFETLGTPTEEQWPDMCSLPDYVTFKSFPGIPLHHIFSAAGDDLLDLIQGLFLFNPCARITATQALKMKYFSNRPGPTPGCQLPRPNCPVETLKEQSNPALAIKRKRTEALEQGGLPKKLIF
Summary of the method: as §2

CDK4/D1 = CDK4/D1 (Homo sapiens, UniProt P11802); experiment: ADP Glo Kinase assay CDK4/D1; format: biochemical; settings: CDK4D1; for remaining activity at 10 µM: compound at 10 μM, read-out: residual activity (%) at 10 μM CDK4D1; for Ki: read-out: CDK inhibition, Ki (μM) CDK4D1
Sequence of CDK4/D1 (P11802 whole entry): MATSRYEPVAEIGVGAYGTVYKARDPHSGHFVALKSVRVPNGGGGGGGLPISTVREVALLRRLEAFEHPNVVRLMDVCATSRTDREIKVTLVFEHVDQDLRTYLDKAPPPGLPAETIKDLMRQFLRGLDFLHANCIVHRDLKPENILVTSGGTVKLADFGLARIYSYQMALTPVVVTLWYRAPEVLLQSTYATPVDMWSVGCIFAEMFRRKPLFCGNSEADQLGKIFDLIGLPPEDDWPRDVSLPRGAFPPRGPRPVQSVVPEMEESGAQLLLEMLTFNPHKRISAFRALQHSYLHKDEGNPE
Sequence of CDK4/D1 (P24385 whole entry partner): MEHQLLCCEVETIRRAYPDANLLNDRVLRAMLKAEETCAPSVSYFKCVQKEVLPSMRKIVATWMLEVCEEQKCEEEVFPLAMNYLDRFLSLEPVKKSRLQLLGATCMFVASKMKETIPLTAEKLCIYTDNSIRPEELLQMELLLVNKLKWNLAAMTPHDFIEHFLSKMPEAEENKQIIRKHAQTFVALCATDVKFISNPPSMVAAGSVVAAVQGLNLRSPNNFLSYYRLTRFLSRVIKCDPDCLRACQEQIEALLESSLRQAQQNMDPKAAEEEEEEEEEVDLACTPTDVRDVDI
Summary of the method: as §1

Sequence of CDK9/T1 (P50750 whole entry): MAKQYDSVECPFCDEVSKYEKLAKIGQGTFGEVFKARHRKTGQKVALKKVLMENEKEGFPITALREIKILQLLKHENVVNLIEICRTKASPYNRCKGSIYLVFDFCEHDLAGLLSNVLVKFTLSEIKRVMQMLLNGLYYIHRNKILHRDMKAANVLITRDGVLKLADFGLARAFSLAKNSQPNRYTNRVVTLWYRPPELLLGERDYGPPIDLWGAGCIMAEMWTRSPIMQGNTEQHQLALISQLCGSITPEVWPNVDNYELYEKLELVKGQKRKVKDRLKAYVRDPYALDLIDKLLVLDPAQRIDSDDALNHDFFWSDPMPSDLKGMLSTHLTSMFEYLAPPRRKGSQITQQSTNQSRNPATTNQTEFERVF
Sequence of CDK9/T1 (O60563 whole entry partner): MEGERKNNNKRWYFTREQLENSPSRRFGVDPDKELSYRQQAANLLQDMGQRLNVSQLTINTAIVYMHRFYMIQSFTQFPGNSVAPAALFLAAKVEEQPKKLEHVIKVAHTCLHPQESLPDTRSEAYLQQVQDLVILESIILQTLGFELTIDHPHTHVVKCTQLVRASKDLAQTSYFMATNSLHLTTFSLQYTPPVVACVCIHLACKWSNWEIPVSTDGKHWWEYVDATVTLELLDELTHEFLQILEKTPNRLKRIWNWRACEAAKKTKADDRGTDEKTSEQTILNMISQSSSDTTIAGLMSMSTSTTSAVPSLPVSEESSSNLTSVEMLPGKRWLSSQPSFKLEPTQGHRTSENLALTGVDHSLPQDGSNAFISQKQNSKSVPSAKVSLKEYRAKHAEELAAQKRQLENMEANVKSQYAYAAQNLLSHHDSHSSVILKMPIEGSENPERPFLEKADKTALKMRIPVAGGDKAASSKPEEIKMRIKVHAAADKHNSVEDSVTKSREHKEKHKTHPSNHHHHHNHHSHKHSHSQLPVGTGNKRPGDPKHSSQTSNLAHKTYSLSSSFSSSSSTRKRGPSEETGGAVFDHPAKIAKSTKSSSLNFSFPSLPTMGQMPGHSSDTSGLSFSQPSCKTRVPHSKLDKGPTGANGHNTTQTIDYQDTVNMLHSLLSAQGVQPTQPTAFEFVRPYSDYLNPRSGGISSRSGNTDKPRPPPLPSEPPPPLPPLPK

Ki (CDK9/T1) [µM] | GI50 (leukemia cell lines) [µM] | remaining activity at 10 µM (CDK6/D3) [%] | Ki (CDKs and other kinases [1]) [µM] | Ki (CDKs and other kinases [2]) [µM] | Ki (CDKs and other kinases [3]) [µM] | remaining activity at 10 µM (CDK4/D1) [%] | remaining activity at 10 µM (CDKs and other kinases [1]) [%] | remaining activity at 10 µM (CDKs and other kinases [2]) [%] | remaining activity at 10 µM (CDKs and other kinases [3]) [%] | residual activity at 10 µM (CDK4/D1) [%] | Ki (CDK6/D3) [µM] | Ki (CDK4/D1) [µM] | residual activity at 10 µM (CDKs and other kinases [1]) [%] | Compound
0.003 | 0.002 ± 0.0005 | 16 | 0.009 | 0.013 | 0.016 | 11 |  |  |  |  |  |  |  | N[C@H]1CC[C@H](Nc2ncc(F)c(-c3cnc4ccc(Nc5ccccc5)cn34)n2)CC1 [Compound 6, (1r,4r)-N^1-(5-Fluoro-4-(6-(phenylamino)imidazo[1,2-a]pyridin-3-yl)pyrimidin-2-yl)cyclohexane-1,4-diamine]
0.049 | 0.002 ± 0.001 | 0 |  |  |  | 0 | 3 | 18 | 5 |  |  |  |  | Cc1cnc(N[C@H]2CC[C@H](N)CC2)nc1-c1cnc2cc(-c3ccccc3)ccn12 [Compound 53, (1r,4r)-N^1-(5-Methyl-4-(7-phenylimidazo[1,2-a]pyridin-3-yl)pyrimidin-2-yl)cyclohexane-1,4-diamine]
0.008 | 0.004 ± 0.001 | 2 |  |  |  | 0 | 1 | 4 | 3 |  |  |  |  | N[C@H]1CC[C@H](Nc2ncc(F)c(-c3cnc4cc(Cl)ccn34)n2)CC1 [Compound 43, (1r,4r)-N^1-(4-(7-Chloroimidazo[1,2-a]pyridin-3-yl)-5-fluoropyrimidin-2-yl)cyclohexane-1,4-diamine]
0.006 | < 0.001 | 0 |  |  |  | 5 | 0 | 0 | 2 |  |  |  |  | N[C@H]1CC[C@H](Nc2ncc(F)c(-c3cnc4cc(-c5cccnc5)ccn34)n2)CC1 [Compound 45, (1r,4r)-N^1-(5-Fluoro-4-(7-(pyridin-3-yl)imidazo[1,2-a]pyridin-3-yl)pyrimidin-2-yl)cyclohexane-1,4-diamine]
0.41 | 0.057 ± 0.006 | 89 |  |  |  |  | 62 | 57 | 37 | 115 |  |  |  | Cc1cnc(N[C@H]2CC[C@H](N)CC2)nc1-c1cnc2ccc(-c3ccc(CN4CCOCC4)cc3)cn12 [Compound 60, (1r,4r)-N^1-(5-Methyl-4-(6-(4-(morpholinomethyl)phenyl)imidazo[1,2-a]pyridin-3-yl)pyrimidin-2-yl)cyclohexane-1,4-diamine]
0.007 | < 0.001 | 1 |  |  |  | 2 | 0 | 0 | 2 |  |  |  |  | N[C@H]1CC[C@H](Nc2ncc(F)c(-c3cnc4cc(-c5ccccc5)ccn34)n2)CC1 [Compound 44, (1r,4r)-N^1-(5-Fluoro-4-(7-phenylimidazo[1,2-a]pyridin-3-yl)pyrimidin-2-yl)cyclohexane-1,4-diamine]
0.85 | 0.042 ± 0.017 | 100 |  |  |  | 95 | 8 | 4 | 2 |  |  |  |  | Fc1cnc(N[C@H]2CC[C@H](Nc3ccccn3)CC2)nc1-c1cnc2ccc(-c3ccccc3)cn12 [Compound 28, (1r,4r)-N^1-(5-Fluoro-4-(6-phenylimidazo[1,2-a]pyridin-3-yl)pyrimidin-2-yl)-N4-(pyridin-2-yl)cyclohexane-1,4-diamine]
0.095 | 0.041 ± 0.012 | 42 | 1.12 | 1.06 | 0.437 | 2 |  |  |  |  |  |  |  | Fc1cnc(NC2CCN(CC3CC3)CC2)nc1-c1cnc2ccccn12 [Compound 22, N-(1-(Cyclopropylmethyl)piperidin-4-yl)-5-fluoro-4-(imidazo[1,2-a]pyridin-3-yl)pyrimidin-2-amine]
0.008 | 0.006 ± 0.001 | 41 | 0.013 | 0.121 | 0.032 | 4 |  |  |  |  |  |  |  | N[C@H]1CC[C@H](Nc2ncc(Cl)c(-c3cnc4ccc(Br)cn34)n2)CC1 [Compound 12, (1r,4r)-N^1-(4-(6-Bromoimidazo[1,2-a]pyridin-3-yl)-5-chloropyrimidin-2-yl)cyclohexane-1,4-diamine]
0.12 | 0.013 ± 0.002 | 96 | 0.044 | 0.17 | 1.18 | 7 |  |  |  |  |  |  |  | Cc1cnc(N[C@H]2CC[C@H](N)CC2)nc1-c1cnc2ccc(-c3ccncc3)cn12 [Compound 37, (1r,4r)-N^1-(5-Methyl-4-(6-(pyridin-4-yl)imidazo[1,2-a]pyridin-3-yl)pyrimidin-2-yl)cyclohexane-1,4-diamine]
0.006 | 0.552 ± 0.166 |  | 0.14 | 1.35 | 4 |  |  |  |  |  | 1.11 | 1.24 |  | Cc1cnc(N[C@H]2CC[C@H](N)CC2)nc1-c1cnc2ccc(Nc3cncnc3)cn12 [Compound 115, (1r,4r)-N^1-(5-Methyl-4-(6-(pyrimidin-5-ylamino)imidazo [1,2-a]pyridin-3-yl)pyrimidin-2-yl)cyclohexane-1,4-diamine]
0.165 | 0.082 ± 0.02 | 100 | 4.74 | 7.36 | 5.6 | 36 |  |  |  |  |  |  |  | Cc1cnc(N[C@H]2CC[C@H](N)CC2)nc1-c1cnc2ccc(-c3cncnc3)cn12 [Compound 39, (1r,4r)-N^1-(5-Methyl-4-(6-(pyrimidin-5-yl)imidazo[1,2-a]pyridin-3-yl)pyrimidin-2-yl)cyclohexane-1,4-diamine]
0.007 | 0.011 ± 0.002 |  | 0.26 | 0.88 | 0.27 |  |  |  |  |  | 0.394 | 0.79 |  | N[C@H]1CC[C@H](Nc2ncc(Cl)c(-c3cnc4ccc(-c5cccnc5)cn34)n2)CC1 [Compound 35, (1r,4r)-N^1-(5-Chloro-4-(6-(pyridin-3-yl)imidazo[1,2-a]pyridin-3-yl)pyrimidin-2-yl)cyclohexane-1,4-diamine]
0.002 | 0.003 ± 0.001 | 16 | 0.006 | 0.014 | 0.075 | 0 |  |  |  |  |  |  |  | N[C@H]1CC[C@H](Nc2ncc(F)c(-c3cnc4ccc(-c5ccccc5)cn34)n2)CC1 [Compound 5, (1r,4r)-N^1-(5-Fluoro-4-(6-phenylimidazo[1,2-a]pyridin-3-yl)pyrimidin-2-yl)cyclohexane-1,4-diamine]
0.018 | 0.005 ± 0.002 | 11 |  |  |  |  |  | 32 | 13 | 45 |  |  | 145 | Cc1cnc(N[C@H]2CC[C@H](N)CC2)nc1-c1cnc2ccc(Nc3ccccc3)cn12 [Compound 31, (1r,4r)-N^1-(5-Methyl-4-(6-(phenylamino)imidazo[1,2-a]pyridin-3-yl)pyrimidin-2-yl)cyclohexane-1,4-diamine]
0.016 | 0.004 ± 0.001 | 48 | 0.016 | 0.065 | 0.094 | 4 |  |  |  |  |  |  |  | N[C@H]1CC[C@H](Nc2ncc(Cl)c(-c3cnc4ccc(-c5ccncc5)cn34)n2)CC1 [Compound 36, (1r,4r)-N^1-(5-Chloro-4-(6-(pyridin-4-yl)imidazo[1,2-a]pyridin-3-yl)pyrimidin-2-yl)cyclohexane-1,4-diamine]
0.004 | 0.002 | 45 |  |  |  | 4 | 3 | 13 | 8 |  |  |  |  | CN(C)S(=O)(=O)c1ccc(-c2ccc3ncc(-c4nc(N[C@H]5CC[C@H](N)CC5)ncc4F)n3c2)cc1 [Compound 48, 4-(3-(2-(((1r,4r)-4-Aminocyclohexyl)amino)-5-fluoropyrimidin-4-yl)imidazo[1,2-a]pyridin-6-yl)-N,N-dimethylbenzenesulfonamide]
